As usually defined, the ED50 is the midpoint of the dose-response relation. A low value points to an effect at a small dose.

The values that follow come from patent US4937240A, “Thienotriazolodiazepine compounds and pharmaceutical uses thereof” (Yoshitomi Pharmaceutical Industries, Ltd., priority 1988, dated 1990).

For one experiment, the system named is PAF. The note with it: literature; cited from earlier work.
The test system of experiment [1] is PAF-induced lethal shock. As to the kind of experiment: Effect on PAF-induced lethal shock in mice (i.v.). The class given is in vivo. The note with it: Mus musculus, male ICR mice, 80 μg/kg PAF i.v. 1 hour after intravenous administration, observed 24 hours. As to the method:
(§1) In order to determine PAF-antagonistic activity of the compounds of the present invention, the inhibitory effects of PAF-induced lethal shock in mice were investigated by oral administration and intravenous administration.
Experiment 2: Effect on PAF-induced lethal shock in mice (i.v.)
The experiment was carried out according to the method of Young et al. as described in Experiment 1. Groups of 8 to 15 male ICR mice (Charles River) weighing 25-30 g were used. 80 μg/kg of PAF (Serdary Research Lab.) solution was intravenously administered in a lateral a tail vein 1 hour after the intravenous administration of test compound ([…]). […] Results were given as ED50 (mg/kg) in Table 2.

Experiment [2] relates to PAF-induced lethal shock. As to the kind of experiment: Effect on PAF-induced lethal shock in mice (p.o.). It counts as in vivo. The note with it: Mus musculus, male ICR mice, 80 μg/kg PAF i.v. 1 hour after oral administration, observed 24 hours. As to the method:
as §1
Experiment 1: Effect on PAF-induced lethal shock in mice (p.o.)
The experiment was carried out according to the method of Young et al. described in Prostaglandins, vol. 30, p. 545 (1985). Groups of 9 to 15 male ICR mice (Charles River) weighing 25-30 g were used. 80 μg/kg of PAF (Serdary Research Lab.) solution was intravenously administered in a lateral tail vein 1 hour after the oral administration of test compound (0.1 ml/10 g). […] Results were given as ED50 (mg/kg) in Table 1.

`Cc1nnc2n1-c1sc(CCC(=O)N3CCOCC3)cc1C(c1ccccc1Cl)=NC2` [4-(2-chlorophenyl)-9-methyl-6H-thieno[3,2-f][1,2,4]triazolo[] [4-(2-chlorophenyl)-9-methyl-6H-thieno[3,2-f][1,2,4]triazolo[4,3-a][1,4]diazepine-2-propionic acid morpholide]: in the experiment on PAF, the “antagonistic activity on PAF” value is “exhibit antagonistic activity on PAF”.

With `Cc1nnc2n1-c1sc(CCC(=O)N3CCOCC3)cc1C(c1ccccc1Cl)=NC2C` (centres unmarked) [A, 3-[4-(2-chlorophenyl)-6,9-dimethyl-6H-thieno[3,2-f][1,2,4]triazolo[4,3-a][1,4]diazepin-2-yl]propionic acid morpholide], the ED50 was found to be 0.021 mg/kg with PAF-induced lethal shock [1] and 0.065 mg/kg with PAF-induced lethal shock [2]. In turn, `Cc1nnc2n1-c1sc3c(c1C(c1ccccc1Cl)=NC2C)CC(C(=O)N1CCOCC1)C3` (centres unmarked) [B, 5-(2-chlorophenyl)-3,4-dihydro-7,10-dimethyl-3-morpholinocarbonyl-2H,7H-cyclopenta[4,5]thieno[3,2-f][1,2,4]triazolo[4,3-a][1,4]diazepine] displayed an ED50 in the experiment on PAF-induced lethal shock [2] of 0.55 mg/kg. On to `Cc1nnc2n1-c1sc3c(c1C(c1ccccc1Cl)=NC2C)CC(CN1CCOCC1)C3` (centres unmarked) [C, 5-(2-chlorophenyl)-3,4-dihydro-7,10-dimethyl-3-morpholinomethyl-2H,7H-cyclopenta[4,5]thieno[3,2-f][1,2,4]triazolo[4,3-a][1,4]diazepine 1/2 hydrate], for which the 50% effect level in the experiment on PAF-induced lethal shock [2] (ED50) was put at a dose of 0.2 mg/kg. In the experiment with PAF-induced lethal shock [2], `Cc1nnc2n1-c1sc(CCC(=O)N3CCN(CC(C)C)CC3)cc1C(c1ccccc1Cl)=NC2C` (centres unmarked) [D, 3-[4-(2-chlorophenyl)-6,9-dimethyl-6H-thieno[3,2-f][1,2,4]triazolo[4,3-a][1,4]diazepin-2-yl]propionic acid 4-isobutyl-1-piperazide] displayed an ED50 of 0.3 mg/kg. On the same count and under the same terms, under `CCCN(CCC)C(=O)CCc1cc2c(s1)-n1c(C)nnc1C(C)N=C2c1ccccc1Cl` (centres unmarked) [E, 3-[4-(2-chlorophenyl)-6,9-dimethyl-6H-thieno[3,2-f][1,2,4]triazolo[4,3-a][1,4]diazepin-2-yl]propionic acid N,N-dipropylamide] stands 0.14 mg/kg. Consider `Cc1nnc2n1-c1sc3c(c1C(c1ccccc1Cl)=NC2)CC(CN1CCOCC1)C3` (centres unmarked) [STY 2108, 5-(2-chlorophenyl)-3,4-dihydro-10-methyl-3-morpholinomethyl-2H,7H-cyclopenta[4,5]thieno[3,2-f][1,2,4]triazolo[4,3-a][1,4]diazepine], for which the “antagonistic activity on PAF” value in the experiment with PAF is recorded as “exhibit more potent PAF-antagonistic activity”. With `Cc1nnc2n1-c1sc(CCC(=O)N3CCOCC3)cc1C(c1ccccc1Cl)=NC2` [WEB 2086, 3-[4-(2-chlorophenyl)-9-methyl-6H-thieno[3,2-f][1,2,4]triazolo[4,3-a][1,4]diazepin-2-yl]propionic acid morpholide, reference compound], in the experiment on PAF, the “antagonistic activity on PAF” value is “exhibit more potent PAF-antagonistic activity”. The ED50 was found to be 0.125 mg/kg with PAF-induced lethal shock [1] and 1.6 mg/kg with PAF-induced lethal shock [2].
